Eleven compounds from patent publication US20110166163A1, “SUBSTITUTED FUROPYRIMIDINES AND USE THEREOF” (BAYER SCHERING PHARMA AKTIENGESELLSCHAFT, priority 2007, published 2011) can be followed below.

In this assay the target is T1, prostacyclin receptors (IP receptors) (Homo sapiens, UniProt P43119).
T1 construct: Thrombocyte membranes are obtained by centrifuging 50 ml of human blood; tissue Maco Pharma, Langen (buffy coats); host or cells: human thrombocyte (platelet) membranes from blood buffy coats
T1 sequence (P43119 whole entry): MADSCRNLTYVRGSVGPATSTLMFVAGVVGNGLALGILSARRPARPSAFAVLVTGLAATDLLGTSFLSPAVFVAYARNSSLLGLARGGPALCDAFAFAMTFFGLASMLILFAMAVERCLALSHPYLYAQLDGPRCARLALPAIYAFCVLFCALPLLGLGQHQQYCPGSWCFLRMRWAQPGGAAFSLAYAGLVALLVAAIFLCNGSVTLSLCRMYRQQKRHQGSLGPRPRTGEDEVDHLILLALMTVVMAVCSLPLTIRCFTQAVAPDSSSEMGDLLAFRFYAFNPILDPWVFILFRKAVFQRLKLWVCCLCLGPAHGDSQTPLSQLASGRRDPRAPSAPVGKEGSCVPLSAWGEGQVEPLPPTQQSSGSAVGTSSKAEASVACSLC
Kind of assay: Binding to prostacyclin receptors (IP receptors) of human thrombocyte membranes. Particulars: displacement of 3 nM 3H-Iloprost, 60 min, room temperature. How it is done: Thrombocyte membranes are obtained by centrifuging 50 ml of human blood (Buffy coats with CDP Stabilizer, from Maco Pharma, Langen) for 20 min at 160×g. Remove the supernatant (platelet-rich plasma, PRP) and then centrifuge again at 2000×g for 10 min at room temperature. Resuspend the sediment in 50 mM tris(hydroxymethyl)amino-methane, which has been adjusted to a pH of 7.4 with 1 N hydrochloric acid, and store at −20° C. overnight. On the next day, centrifuge the suspension at 80 000×g and 4° C. for 30 min. Discard the supernatant. Resuspend the sediment in 50 mM tris(hydroxy-methyl)aminomethane/hydrochloric acid, 0.25 mM ethylene diamine tetraacetic acid (EDTA), pH 7.4, and then centrifuge once again at 80 000×g and 4° C. for 30 min. Take up the membrane sediment in binding buffer (50 mM tris(hydroxymethyl)-aminomethane/hydrochloric acid, 5 mM magnesium chloride, pH 7.4) and store at −70° C. until the binding test.
For the binding test, incubate 3 nM ^3H-Iloprost (592 GBq/mmol, from AmershamBioscience) for 60 min with 300-1000 μg/ml of human thrombocyte membranes per charge (max. 0.2 ml) in the presence of the test substances at room temperature. After stopping, add cold binding buffer to the membranes and wash with 0.1% bovine serum albumin. After adding Ultima Gold Scintillator, quantify the radioactivity bound to the membranes using a scintillation counter. The nonspecific binding is defined as radioactivity in the presence of 1 μM Iloprost (from Cayman Chemical, Ann Arbor) and is as a rule <25% of the bound total radioactivity. The binding data (IC50 values) are determined using the program GraphPad Prism Version 3.02.
`COc1ccc(-c2c(-c3ncccc3F)oc3ncnc(O[C@H](C)CCCCC(=O)O)c23)cc1` [Example 48] came in with an IC50 of 121 nM.

Take `C=Cc1ccc(-c2c(-c3ccccc3)oc3ncnc(NCCCCCC(=O)OC)c23)nc1` [Example 3, Methyl 6-{[6-phenyl-5-(5-vinylpyridin-2-yl)furo[2,3-d]pyrimidin-4-yl]amino}hexanoate]: the IC50 was 105 nM. For `CCOC(=O)COC[C@@H](C)COc1ncnc2oc(-c3ccccn3)c(-c3ccc(OC)cc3)c12` [Example 37], the IC50 was found to be 56 nM. `CCc1ccc(-c2c(-c3ccccc3)oc3ncnc(OC[C@H](C)COCC(=O)O)c23)nc1` [Example 46] came in with an IC50 of 63 nM. The compound `CC1CC=C(c2c(-c3ccccc3)oc3ncnc(O[C@H](C)CCCCC(=O)O)c23)CC1` (stereo partly drawn) [Example 26, (6R)-6-{[5-(4-Methylcyclohex-1-en-1-yl)-6-phenylfuro[2,3-d]pyrimidin-4-yl]oxy}heptanoic acid] gave an IC50 of 1870 nM. In turn, `CCc1ccc(-c2c(-c3ccccn3)oc3ncnc(O[C@H](C)CCCCC(=O)O)c23)cc1` [Example 49] returned a half-maximal inhibitory concentration (IC50) of 19 nM. On to `COc1ccc(-c2c(-c3ccccn3)oc3ncnc(O[C@H](C)CCCCC(=O)O)c23)cc1` [Example 21], for which the IC50 stood at 53 nM. As for `CCc1ccc(-c2c(-c3ccccc3)oc3ncnc(NCCCCCC(=O)O)c23)nc1` [Example 18], the IC50 came out at 125 nM. `COc1ccc(-c2c(-c3cccs3)oc3ncnc(NCCCCCC(=O)O)c23)cc1` [Example 32, 6-{[5-(4-Methoxyphenyl)-6-(2-thienyl)furo[2,3-d]pyrimidin-4-yl]amino}hexanoic acid] yielded an IC50 of 134 nM. Compound `CCc1ccc(-c2c(-c3ccccn3)oc3ncnc(OC[C@H](C)OCCC(=O)O)c23)cc1` [Example 51] had an IC50 of 193 nM. The result for `COc1ccc(-c2c(C3=CCCCC3)oc3ncnc(O[C@H](C)CCCCC(=O)O)c23)cc1` [Example 24] reads 72 nM.

One may read the IC50 as the point on the concentration scale where inhibition reaches its midpoint. Low values mean inhibition by little substance, high ones a need for much substance.
